US9409952B2, “Peptide-compound cyclization method” (Chugai Seiyaku Kabushiki Kaisha, priority 2011, dated 2016)
Like-named read-outs stand apart in the source and are kept apart here. Starred links: 1 amine or outer side, 2 acyl side, 3 side chain; linkers in the order of their positions; H or OH if unused. Positions of bridges follow the written chain, without caps; N, C: chain ends. Non-standard residues stand in square brackets, D forms with d. Residues, ends and D or L forms follow the SMILES beside them. *: point of attachment. Phe(3-(CH2)4CO) = O=C([C@H](Cc1cccc(CCCCC(=O)[*:3])c1)N[*:1])[*:2]; NMePhe(3-Cl) = CN[C@@H](Cc1cccc(Cl)c1)C(=O)O; Lys(Me2) = CN(C)CCCC[C@H](N)C(=O)O; NMeF = CN[C@@H](Cc1ccccc1)C(=O)O; NMeGABA = CN(CCCC(=O)[*:2])[*:1]; NMeI = CC[C@H](C)[C@H](NC)C(=O)O; NMeβAla = CN(CCC(=O)[*:2])[*:1]; NMeL = CN[C@@H](CC(C)C)C(=O)O; NMeV = CN[C@H](C(=O)O)C(C)C; NMeA = CN[C@@H](C)C(=O)O; Piperidide = C1CCN(*)CC1; dNMeA = CN[C@H](C)C(=O)O; Sar = CNCC(=O)O; tBu = CC(C)(C)*

How the values were obtained:
[1] = PAMPA (parallel artificial membrane permeability assay); format: in vitro ADME; settings: PAMPA
Summary of the method: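 Artificial membrane was 10% (w/v) egg lecithin plus 0.5% (w/v) cholesterol in dodecane on a PVDF filter. A 10 mM DMSO stock was added at 0.5% (v/v) to donor buffer (50 mM MOPSO, pH 6.5, 5.0% glycocholic acid). After 18 h at 37 °C, LC/MS or LC/UV gave donor and acceptor levels for Pe.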

[2] = Metabolic stability in human hepatic microsome; format: in vitro ADME; settings: microsomes
[3] = membrane permeation rate (Pe), 50 mM MOPSO buffer pH 6.5 with 5.0% glycocholic acid, 37° C., 18 hours, read-out: iPAMPA Pe
[4] = pH 7.4, human hepatic microsome, NADPH(+), read-out: CL NADPH(+)

| SMILES | Papp at 18 hours, 50 µM [1, 3] | microsomal CLint at 1 uM [2, 4] | Papp at 18 hours, 50 µM ([1]; pH 6.5) | microsomal CLint at 1 uM ([2]; human, pH 7.4, CL NADPH(+)) |
| --- | --- | --- | --- | --- |
| CC(C)C[C@@H]1NC(=O)[C@H](CC(C)C)N(C)C(=O)[C@H]([C@@H](C)O)NC(=O)CCCN(C)C(=O)C[C@@H](C(=O)N2CCCCC2)NC(=O)[C@H](COC(C)(C)C)NC(=O)[C@H](Cc2ccccc2)N(C)C1=O [DP-715] ([NMeGABA]T[NMeL]L[NMeF]S(tBu)D-Piperidide; lactam N-7) | 24 ×10⁻⁶ cm/s | 134 µL/min/mg | – | – |
| CC(C)C[C@H]1C(=O)N(C)[C@@H](CC(C)C)C(=O)N[C@H](C(=O)N(C)[C@@H](Cc2ccccc2)C(=O)N[C@@H](C)C(=O)N2CCCCC2)CC(=O)N[C@H](C(C)C)C(=O)N(C)[C@@H](C)C(=O)N(C)[C@@H](Cc2ccccc2)C(=O)N(C)[C@@H](C)C(=O)N[C@@H](CCCCN(C)C)C(=O)N(C)CC(=O)N[C@@H](C(C)C)C(=O)N1C [DP-631] ([dV][NMeA][NMeF][NMeA][Lys(Me2)][Sar]V[NMeL][NMeL]D[NMeF]A-Piperidide; lactam N-10) | 1.6 ×10⁻⁶ cm/s | 5 µL/min/mg | – | – |
| CC[C@H](C)[C@@H]1NC(=O)CCCCc2cccc(c2)C[C@@H](C(=O)N2CCCCC2)NC(=O)[C@H](C)N(C)C(=O)[C@H](CC(C)C)N(C)C(=O)CN(C)C(=O)[C@H]([C@@H](C)O)NC(=O)[C@H](Cc2ccccc2)N(C)C(=O)[C@H](CC(C)C)N(C)C(=O)[C@H](C)NC(=O)[C@H](C(C)C)N(C)C(=O)[C@H](Cc2ccccc2)N(C)C1=O [DP-876] (I[NMeF][NMeV]A[NMeL][NMeF]T[Sar][NMeL][NMeA][Phe(3-(CH2)4CO)]-Piperidide; lactam N-11) | 55 ×10⁻⁶ cm/s | 103 µL/min/mg | – | – |
| CC[C@H](C)[C@H]1C(=O)N(C)CC(=O)N(C)[C@@H](C(C)C)C(=O)N[C@@H]([C@@H](C)O)C(=O)N[C@H](C(=O)N2CCCCC2)CC(=O)N[C@H](C(C)C)C(=O)N(C)[C@@H](C)C(=O)N(C)[C@@H](CC(C)C)C(=O)N[C@@H](CC(C)C)C(=O)N(C)[C@@H](Cc2ccccc2)C(=O)N[C@@H](Cc2ccccc2)C(=O)N1C [DP-233] ([dV][NMeA][NMeL]L[NMeF]F[NMeI][Sar][NMeV]TD-Piperidide; lactam N-11) | 32 ×10⁻⁶ cm/s | 39 µL/min/mg | – | – |
| CC(C)C[C@H]1C(=O)N[C@@H](COC(C)(C)C)C(=O)N[C@H](C(=O)N2CCCCC2)CC(=O)N(C)[C@@H](C)C(=O)N(C)[C@@H](Cc2ccccc2)C(=O)N(C)[C@@H](CC(C)C)C(=O)N[C@@H]([C@@H](C)O)C(=O)N(C)[C@@H](C)C(=O)N1C [DP-707] ([NMeA][NMeF][NMeL]T[NMeA][NMeL]S(tBu)D-Piperidide; lactam N-8) | 29 ×10⁻⁶ cm/s | 84 µL/min/mg | – | – |
| CC(C)C[C@H]1C(=O)N[C@@H](C)C(=O)N(C)[C@@H](Cc2ccccc2)C(=O)N(C)[C@@H](C(C)C)C(=O)N[C@@H](Cc2ccccc2)C(=O)N(C)[C@@H](C)C(=O)N(C)[C@@H](C)C(=O)N[C@H](C(=O)N2CCCCC2)CC(=O)N(C)[C@H](C)C(=O)N[C@@H]([C@@H](C)O)C(=O)N(C)[C@@H](C)C(=O)N1C [DP-474] ([dNMeA]T[NMeA][NMeL]A[NMeF][NMeV]F[NMeA][NMeA]D-Piperidide; lactam N-11) | 13 ×10⁻⁶ cm/s | 129 µL/min/mg | – | – |
| CC(C)C[C@@H]1NC(=O)[C@H](Cc2ccccc2)N(C)C(=O)[C@H](Cc2ccccc2)N(C)C(=O)[C@H]([C@@H](C)O)NC(=O)CN(C)C(=O)[C@H](C)NC(=O)C[C@@H](C(=O)N2CCCCC2)NC1=O [DP-751] (A[Sar]T[NMeF][NMeF]LD-Piperidide; lactam N-7) | 18 ×10⁻⁶ cm/s | 156 µL/min/mg | – | – |
| CC[C@H](C)[C@H](NC(=O)[C@@H](NC(=O)[C@@H]1CC(=O)N(C)CCC(=O)N[C@@H](Cc2ccccc2)C(=O)N(C)[C@@H](Cc2ccccc2)C(=O)N(C)[C@@H](CC(C)C)C(=O)N[C@@H]([C@@H](C)O)C(=O)N(C)[C@@H](C)C(=O)N(C)[C@@H](CC(C)C)C(=O)N[C@@H](C(C)C)C(=O)N(C)[C@@H](CC(C)C)C(=O)N[C@@H](COC(C)(C)C)C(=O)N(C)[C@@H](CC(C)C)C(=O)N1)C(C)C)C(=O)N1CCCCC1 [DP-954] ([NMeβAla]F[NMeF][NMeL]T[NMeA][NMeL]V[NMeL]S(tBu)[NMeL]DVI-Piperidide; lactam N-12) | 0.1 ×10⁻⁶ cm/s | 26 µL/min/mg | – | – |
| CC[C@H](C)[C@H]1C(=O)N[C@@H]([C@@H](C)O)C(=O)N(C)CC(=O)N[C@H](C(=O)N2CCCCC2)CC(=O)N[C@H](C(C)C)C(=O)N[C@@H](CC(C)C)C(=O)N(C)[C@@H](CC(C)C)C(=O)N(C)[C@@H](Cc2ccccc2)C(=O)N[C@@H](C)C(=O)N(C)[C@@H](Cc2ccccc2)C(=O)N(C)[C@@H](CC(C)C)C(=O)N1C [DP-232] ([dV]L[NMeL][NMeF]A[NMeF][NMeL][NMeI]T[Sar]D-Piperidide; lactam N-11) | 18 ×10⁻⁶ cm/s | 77 µL/min/mg | – | – |
| CC[C@H](C)[C@H]1C(=O)N[C@@H]([C@@H](C)O)C(=O)N(C)CC(=O)N[C@H](C(=O)N2CCCCC2)CC(=O)N[C@H](C)C(=O)N[C@@H](CC(C)C)C(=O)N(C)[C@@H](CC(C)C)C(=O)N(C)[C@@H](Cc2ccccc2)C(=O)N[C@@H](C)C(=O)N(C)[C@@H](Cc2ccccc2)C(=O)N(C)[C@@H](CC(C)C)C(=O)N1C [DP-97] ([dA]L[NMeL][NMeF]A[NMeF][NMeL][NMeI]T[Sar]D-Piperidide; lactam N-11) | – | – | 27 ×10⁻⁶ cm/s | 72 µL/min/mg |
| CC(C)C[C@H]1C(=O)N(C)[C@@H](CC(C)C)C(=O)N[C@H](C(=O)N(C)[C@@H](Cc2ccccc2)C(=O)N[C@@H](C)C(=O)N2CCCCC2)CC(=O)N(C)[C@@H](C)C(=O)N(C)[C@@H](Cc2ccccc2)C(=O)N(C)[C@@H](CC(C)C)C(=O)N[C@@H]([C@@H](C)O)C(=O)N(C)[C@@H](C)C(=O)N[C@@H](C(C)C)C(=O)N1C [DP-199] ([NMeA][NMeF][NMeL]T[NMeA]V[NMeL][NMeL]D[NMeF]A-Piperidide; lactam N-9) | 59 ×10⁻⁶ cm/s | 170 µL/min/mg | – | – |
| CC(C)C[C@H]1C(=O)N[C@H](C(=O)N2CCCCC2)CC(=O)N(C)CCC(=O)N[C@@H]([C@@H](C)O)C(=O)N(C)CC(=O)N[C@@H](COC(C)(C)C)C(=O)N(C)[C@@H](Cc2ccccc2)C(=O)N1C [DP-750] ([NMeβAla]T[Sar]S(tBu)[NMeF][NMeL]D-Piperidide; lactam N-7) | 13 ×10⁻⁶ cm/s | 49 µL/min/mg | – | – |
| CC(C)C[C@@H]1NC(=O)[C@H](CC(C)C)N(C)C(=O)[C@H](C)N(C)C(=O)[C@H]([C@@H](C)O)NC(=O)[C@H](Cc2ccccc2)N(C)C(=O)[C@@H](C)NC(=O)C[C@@H](C(=O)N2CCCCC2)NC1=O [DP-741] ([dA][NMeF]T[NMeA][NMeL]LD-Piperidide; lactam N-7) | 10 ×10⁻⁶ cm/s | 169 µL/min/mg | – | – |
| CC(C)C[C@H](NC(=O)[C@H](Cc1ccccc1)N(C)C(=O)[C@@H]1CC(=O)N[C@H](C)C(=O)N[C@@H](C(C)C)C(=O)N(C)[C@@H](Cc2ccccc2)C(=O)N(C)[C@@H](CC(C)C)C(=O)N(C)[C@@H](C)C(=O)N[C@@H]([C@@H](C)O)C(=O)N[C@@H](Cc2ccccc2)C(=O)N1)C(=O)N[C@@H](C)C(=O)N1CCCCC1 [DP-658] ([dA]V[NMeF][NMeL][NMeA]TFD[NMeF]LA-Piperidide; lactam N-8) | 32 ×10⁻⁶ cm/s | 86 µL/min/mg | – | – |
| CC[C@H](C)[C@H]1C(=O)N(C)[C@@H](CC(C)C)C(=O)N[C@H](C(=O)N2CCCCC2)CC(=O)N(C)CCCC(=O)N(C)[C@@H](Cc2ccccc2)C(=O)N[C@@H](Cc2ccccc2)C(=O)N2CCC[C@H]2C(=O)N[C@@H](CC(C)C)C(=O)N(C)[C@@H](C(C)C)C(=O)N[C@@H]([C@@H](C)O)C(=O)N(C)CC(=O)N[C@@H](C)C(=O)N1C [DP-225] ([NMeGABA][NMeF]FPL[NMeV]T[Sar]A[NMeI][NMeL]D-Piperidide; lactam N-12) | 16 ×10⁻⁶ cm/s | 32 µL/min/mg | – | – |
| CC[C@H](C)[C@@H]1NC(=O)[C@H](C)N(C)C(=O)[C@H](Cc2ccccc2)N(C)C(=O)[C@@H](C)N(C)C(=O)C[C@@H](C(=O)N(C)[C@@H](Cc2ccccc2)C(=O)N(C)[C@@H](Cc2ccccc2)C(=O)N[C@@H](C)C(=O)N2CCCCC2)NC(=O)[C@H](C)N(C)C(=O)[C@H]([C@@H](C)O)NC(=O)[C@H](C)N(C)C(=O)[C@H](CC(C)C)N(C)C(=O)[C@H](C)N(C)C1=O [DP-455] ([dNMeA][NMeF][NMeA]I[NMeA][NMeL][NMeA]T[NMeA]D[NMeF][NMeF]A-Piperidide; lactam N-10) | 15 ×10⁻⁶ cm/s | 17 µL/min/mg | – | – |
| CC(C)C[C@H]1C(=O)N(C)CC(=O)N(C)[C@@H](Cc2ccccc2)C(=O)N[C@@H](COC(C)(C)C)C(=O)N[C@H](C(=O)N2CCCCC2)CC(=O)N(C)CCCC(=O)N[C@@H]([C@@H](C)O)C(=O)N1C [DP-534] ([NMeGABA]T[NMeL][Sar][NMeF]S(tBu)D-Piperidide; lactam N-7) | 6.3 ×10⁻⁶ cm/s | 55 µL/min/mg | – | – |
| CC[C@H](C)[C@H](NC(=O)[C@H](CC(C)C)N(C)C(=O)[C@H](CC(C)C)N(C)C(=O)[C@H](Cc1cccc(Cl)c1)N(C)C(=O)[C@@H]1CC(=O)N(C)[C@@H](C)C(=O)N[C@@H](C(C)C)C(=O)N(C)[C@@H](Cc2ccccc2)C(=O)N[C@@H]([C@@H](C)O)C(=O)N2CCC[C@H]2C(=O)N(C)[C@@H](Cc2ccccc2)C(=O)N[C@@H](CC(C)C)C(=O)N1)C(=O)N1CCCCC1 [DP-927] ([NMeA]V[NMeF]TP[NMeF]LD[NMePhe(3-Cl)][NMeL][NMeL]I-Piperidide; lactam N-8) | – | – | 0.1 ×10⁻⁶ cm/s | 5 µL/min/mg |
| CC[C@H](C)[C@H]1C(=O)N[C@H](C(=O)N2CCCCC2)CC(=O)N[C@@H](C)C(=O)N(C)[C@@H](Cc2ccccc2)C(=O)N(C)[C@@H](CC(C)C)C(=O)N[C@@H]([C@@H](C)O)C(=O)N(C)CC(=O)N(C)[C@@H](CC(C)C)C(=O)N[C@@H](COC(C)(C)C)C(=O)N1C [DP-37] (A[NMeF][NMeL]T[Sar][NMeL]S(tBu)[NMeI]D-Piperidide; lactam N-9) | – | – | 31 ×10⁻⁶ cm/s | 156 µL/min/mg |
